Consider three compounds from patent EP0306597B2, “Antiviral nucleosides” (THE WELLCOME FOUNDATION LIMITED, priority 1985, dated 1986).

For data set [1], the system named is Rauscher Murine Leukaemia Virus. Put plainly: Mouse model of retrovirus-induced malignancy (splenomegaly). The data set is classed as in vivo.
The test system of a further data set is HTLV-I. Put plainly: In vitro replication of HTLV-I. The data set is classed as cell-based. The settings on record: concentrations as low as.
The test system of data set [2] is AIDV. In words: AIDV infection of H9 human lymphoblastoid cell-line. The format is cell-based. The settings on record: concentrations as low as; up to 20 hours after infection.
Data set [3] deals with Friend Leukaemia Virus (FLV). The note with it: cited from earlier work.
The subject of a further data set is HSVI. The settings on record: De Clerq et al.; cited from earlier work.
Data set [4] relates to varicella zoster virus (VZV). The settings on record: De Clerq et al.; cited from earlier work.
Data set [5] relates to AIDV. The format is cell-based.
Another data set has as its system vaccinia. The note with it: De Clerq et al.; cited from earlier work.
Data set [6] deals with AIDV. The data set is classed as cell-based. The settings on record: same cell-line transformed by HTLV-I and super-infected with AIDV.
The test system of data set [7] is AIDV. In words: AIDV infection of U937 cells, PHA-stimulated white blood cells and cultured peripheral blood lymphocytes. The format is cell-based.
Data set [8] has as its target T1, AIDV reverse transcriptase (Human immunodeficiency virus type 1 group M subtype B, UniProt P04585).
T1 construct: purified AIDV reverse transcriptase
In words: Inhibition of purified AIDV reverse transcriptase. The format is biochemical. The note with it: purified enzyme; for activity of AIDV reverse transcriptase: in vitro. The text has this: This property is both unusual and valuable for the treatment and prophylaxis of CNS infections caused by human retroviruses.

Data set [9] has as its system avian myeloblastosis virus and Moloney murine leukaemia virus. In words: Chain termination of reverse transcription. The format is biochemical. The note with it: evidenced by effect on avian myeloblastosis virus and Moloney murine leukaemia virus.
In another data set the test system is human DNA polymerase. Put plainly: Effect on human DNA polymerase activity. The format is biochemical. The note with it: in vitro.

Take `Cc1cn([C@H]2C[C@H](N=[N+]=[N-])[C@@H](CO)O2)c(=O)[nH]c1=O`: the “conversion in vivo by cellular enzymes” value is “converted in vivo, by the action of cellular enzymes into the 5'-monophosphate”. Further, the “splenomegaly caused by intravenously administered Rauscher Murine Leukaemia Virus” value in [1] is “prevented”. In the data set with HTLV-I, the “concentration inhibiting the in vitro replication of HTLV-I” value came to 0.8 µg/mL. Moreover, the “concentration effectively preventing infection of the H9 human lymphoblastoid cell-line by AIDV” value in the data set with AIDV [2] was found to be 0.013 µg/mL. The cellular toxicity result in data set [3] is on record as “lack of cellular toxicity”. In [3] (in vitro, Krieg et al.), the “formation of A-type particles of FLV complex” value is “increased” and the “release of C-type particles of FLV complex” value was “affected”. The “activity against HSVI” value in the data set on HSVI is on record as “no appreciable activity”. The “activity against varicella zoster virus (VZV)” value in data set [4] is given as “no appreciable activity”. For the same compound, the decrease in cells result in the data set on AIDV [5] is listed as “no decrease”. Moreover, the activity against vaccinia result with vaccinia is listed as “no appreciable activity”. The Cytopathic effects entry with AIDV [6] was “completely blocked”. Also, in the data set on AIDV [7] (PHA-stimulated white blood cells), the “AIDV infection of PHA-stimulated white blood cells” value is given as “prevented at similarly low concentrations”. In addition, the “AIDV infection of U937 human lymphoblastoid cells” value in the data set on AIDV [7] (U937 human lymphoblastoid cells) was “prevented at similarly low concentrations”. For the same compound, the “AIDV infection of cultured peripheral blood lymphocytes” value in the data set with AIDV [7] (cultured peripheral blood lymphocytes) was “prevented at similarly low concentrations”.

In the case of `Cc1cn([C@H]2C[C@H](N=[N+]=[N-])[C@@H](COP(=O)(O)OP(=O)(O)OP(=O)(O)O)O2)c(=O)[nH]c1=O` [3'-Azido-3'-deoxythymidine-5'-triphosphate], in data set [8], the “mechanism of inhibition of AIDV reverse transcriptase” value was “competitive inhibition” and the “activity of AIDV reverse transcriptase” value was “blocked”. Also, the “activity of AIDV reverse transcriptase” value in data set [8] ([…]) is “inhibits”. The “chain termination in the reverse transcription of AIDV” value in [9] was “effective chain terminator”. Also, the “effect on human DNA polymerase activity” value in the data set with human DNA polymerase is “negligible effect”.

In the case of `Cc1cn([C@H]2C[C@H](N=[N+]=[N-])[C@@H](COP(=O)(O)O)O2)c(=O)[nH]c1=O` [Example 13], the “conversion in vivo by cellular enzymes” value is reported as “further phosphorylated by other enzymes to form the triphosphate via the diphosphate”.
